Reference: ChEMBL document CHEMBL1201862, “PubChem BioAssay data set” (2004)
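Five concentrations, 48 hours, 96-well plates. GI50: concentration for 50% inhibition of growth.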 The source made the active and inactive calls. Rule as the data show it: active = GI50 up to about 1.1 µM and inactive = higher.

Tests used:
Experiment in all cases: NCI anticancer screen, dose series, 48 h
LOX IMVI = system: LOX IMVI
UACC-62 = system: UACC-62
OVCAR-3 = system: OVCAR-3
OVCAR-8 = system: OVCAR-8
Malme-3M = system: Malme-3M
CAKI-1 = system: CAKI-1
NCI-H226 = system: NCI-H226
COLO 205 = system: COLO 205
IGROV-1 = system: IGROV-1
OVCAR-5 = system: OVCAR-5
SK-MEL-5 = system: SK-MEL-5
SF-295 = system: SF-295
SW-620 = system: SW-620
RXF 393 = system: RXF 393
UO-31 = system: UO-31
U-251 = system: U-251
HT-29 = system: HT-29
UACC-257 = system: UACC-257
HOP-62 = system: HOP-62
EKVX = system: EKVX

CN1C(=O)CN2C(Cl)(Cl)C2(c2ccccc2)c2cc(Cl)ccc21 (stereo not given)
GI50 (LOX IMVI): > 100 µM (inactive) | GI50 (UACC-62): > 100 µM (inactive) | GI50 (OVCAR-3): > 100 µM (inactive) | GI50 (OVCAR-8): > 100 µM (inactive) | GI50 (Malme-3M): > 100 µM (inactive) | GI50 (CAKI-1): > 100 µM (inactive) | GI50 (NCI-H226): > 100 µM (inactive) | GI50 (COLO 205): > 100 µM (inactive) | GI50 (IGROV-1): > 100 µM (inactive) | GI50 (OVCAR-5): > 100 µM (inactive) | GI50 (SK-MEL-5): > 100 µM (inactive) | GI50 (SF-295): 27 µM (inactive) | GI50 (SW-620): > 100 µM (inactive) | GI50 (RXF 393): > 100 µM (inactive) | GI50 (UO-31): > 100 µM (inactive) | GI50 (U-251): > 100 µM (inactive) | GI50 (HT-29): 67.5 µM (inactive) | GI50 (UACC-257): 55.1 µM (inactive) | GI50 (HOP-62): > 100 µM (inactive) | GI50 (EKVX): 65.8 µM (inactive)

Cc1c(N2C(=O)CS(=O)(=O)C2c2cccc(Oc3ccccc3)c2)c(=O)n(-c2ccccc2)n1C (stereo not given)
GI50 (LOX IMVI): 47.6 µM (inactive) | GI50 (UACC-62): 66.2 µM (inactive) | GI50 (OVCAR-3): 26.8 µM (inactive) | GI50 (OVCAR-8): 57.3 µM (inactive) | GI50 (Malme-3M): 0.512 µM (active) | GI50 (CAKI-1): 42.3 µM (inactive) | GI50 (NCI-H226): 42.6 µM (inactive) | GI50 (COLO 205): 28 µM (inactive) | GI50 (IGROV-1): 46.9 µM (inactive) | GI50 (OVCAR-5): > 100 µM (inactive) | GI50 (SK-MEL-5): 35.6 µM (inactive) | GI50 (SF-295): 84.9 µM (inactive) | GI50 (SW-620): > 100 µM (inactive) | GI50 (RXF 393): 21.6 µM (inactive) | GI50 (UO-31): 62.7 µM (inactive) | GI50 (U-251): > 100 µM (inactive) | GI50 (HT-29): 34.4 µM (inactive) | GI50 (UACC-257): > 100 µM (inactive) | GI50 (HOP-62): 33.9 µM (inactive) | GI50 (EKVX): 46.7 µM (inactive)

CC(=O)OCC1OC(n2cc(F)c(=O)[nH]c2=O)C(N)C(OC(C)=O)C1OC(C)=O (stereo not given)
GI50 (LOX IMVI): > 100 µM (inactive) | GI50 (UACC-62): > 100 µM (inactive) | GI50 (OVCAR-3): > 100 µM (inactive) | GI50 (OVCAR-8): > 100 µM (inactive) | GI50 (Malme-3M): > 100 µM (inactive) | GI50 (CAKI-1): > 100 µM (inactive) | GI50 (NCI-H226): > 100 µM (inactive) | GI50 (COLO 205): > 100 µM (inactive) | GI50 (IGROV-1): > 100 µM (inactive) | GI50 (OVCAR-5): > 100 µM (inactive) | GI50 (SK-MEL-5): > 100 µM (inactive) | GI50 (SF-295): > 100 µM (inactive) | GI50 (SW-620): > 100 µM (inactive) | GI50 (RXF 393): > 100 µM (inactive) | GI50 (UO-31): > 100 µM (inactive) | GI50 (U-251): > 100 µM (inactive) | GI50 (HT-29): > 100 µM (inactive) | GI50 (UACC-257): > 100 µM (inactive) | GI50 (HOP-62): > 100 µM (inactive) | GI50 (EKVX): > 100 µM (inactive)

CCCO[C@@H]1[C@@H](OC(C)=O)[C@@H](OC(C)=O)C(C)(C)/C=C/[C@H](C)C(=O)[C@@]2(OC(C)=O)C[C@@](C)(OC(C)=O)[C@H](OC(C)=O)[C@@H]2[C@H]2OC(=O)CC[C@@]12OC(=O)c1ccccc1
GI50 (LOX IMVI): > 25 µM (inactive) | GI50 (UACC-62): > 25 µM (inactive) | GI50 (OVCAR-3): > 25 µM (inactive) | GI50 (OVCAR-8): > 25 µM (inactive) | GI50 (Malme-3M): 17.5 µM (inactive) | GI50 (CAKI-1): 17.7 µM (inactive) | GI50 (NCI-H226): > 25 µM (inactive) | GI50 (COLO 205): 6.97 µM (inactive) | GI50 (IGROV-1): > 25 µM (inactive) | GI50 (OVCAR-5): > 25 µM (inactive) | GI50 (SK-MEL-5): 19.1 µM (inactive) | GI50 (SF-295): 10.4 µM (inactive) | GI50 (SW-620): 23.6 µM (inactive) | GI50 (RXF 393): > 25 µM (inactive) | GI50 (UO-31): > 25 µM (inactive) | GI50 (U-251): > 25 µM (inactive) | GI50 (HT-29): 5.18 µM (inactive) | GI50 (UACC-257): > 25 µM (inactive) | GI50 (HOP-62): > 25 µM (inactive) | GI50 (EKVX): > 25 µM (inactive)
